Source: ChEMBL document CHEMBL5532657, “Serendipitous discovery of Class I HDAC inhibitors from rational design of molecular glue degraders targeting HDAC” (Eur J Med Chem, 2024)
The source made the active and inactive calls. The calls are words filed in the database; no cut-off is given here.

Legend:
Histone deacetylase 1 [1] = target: T1, Histone deacetylase 1 (Homo sapiens, UniProt Q13547); test: Induction of HDAC1 degradation in human RS4-11 cells at 0.5 to 10 uM incubated for 12 hrs by Western blotting analysis; format: cell-based; settings: dose 0.5-10 µM
T1 sequence (Q13547 whole entry): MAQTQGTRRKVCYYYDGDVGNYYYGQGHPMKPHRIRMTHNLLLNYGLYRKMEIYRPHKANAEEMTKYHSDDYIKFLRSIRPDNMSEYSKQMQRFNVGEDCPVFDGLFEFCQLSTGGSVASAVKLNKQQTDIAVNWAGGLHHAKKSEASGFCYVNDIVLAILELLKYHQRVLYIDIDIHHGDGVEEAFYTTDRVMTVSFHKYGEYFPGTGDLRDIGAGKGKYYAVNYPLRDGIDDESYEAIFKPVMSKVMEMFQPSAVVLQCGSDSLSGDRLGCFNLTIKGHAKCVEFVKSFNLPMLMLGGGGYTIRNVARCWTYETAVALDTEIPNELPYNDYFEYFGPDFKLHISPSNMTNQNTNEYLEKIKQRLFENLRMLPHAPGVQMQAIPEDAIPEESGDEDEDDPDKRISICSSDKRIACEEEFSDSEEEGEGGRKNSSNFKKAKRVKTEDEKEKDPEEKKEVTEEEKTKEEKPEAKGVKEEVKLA

[2] = target: DNA-binding protein Ikaros (Homo sapiens) (UniProt Q13422); test: Induction of IKZF1 degradation in human RS4-11 cells at 1 to 10 uM by Western blotting analysis; format: cell-based; settings: dose 1-10 µM
Chain of DNA-binding protein Ikaros (Homo sapiens) (Q13422 whole entry): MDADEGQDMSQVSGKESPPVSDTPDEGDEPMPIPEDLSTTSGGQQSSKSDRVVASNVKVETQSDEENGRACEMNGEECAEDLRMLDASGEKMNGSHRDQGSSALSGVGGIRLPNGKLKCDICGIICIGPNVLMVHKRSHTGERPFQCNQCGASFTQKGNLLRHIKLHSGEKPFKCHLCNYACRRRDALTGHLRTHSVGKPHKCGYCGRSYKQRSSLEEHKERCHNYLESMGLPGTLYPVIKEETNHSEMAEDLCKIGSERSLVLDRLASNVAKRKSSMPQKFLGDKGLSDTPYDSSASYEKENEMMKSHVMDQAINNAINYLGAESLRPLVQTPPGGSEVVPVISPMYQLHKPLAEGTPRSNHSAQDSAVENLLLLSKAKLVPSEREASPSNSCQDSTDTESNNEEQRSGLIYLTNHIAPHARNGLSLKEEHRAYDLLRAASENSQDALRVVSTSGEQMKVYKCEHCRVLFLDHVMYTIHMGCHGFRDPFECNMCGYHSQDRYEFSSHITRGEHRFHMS

[3] = target: Zinc finger protein Aiolos (Homo sapiens) (UniProt Q9UKT9); test: Induction of IKZF3 degradation in human RS4-11 cells at 1 to 10 uM by Western blotting analysis; format: cell-based; settings: dose 1-10 µM
Chain of Zinc finger protein Aiolos (Homo sapiens) (Q9UKT9 whole entry): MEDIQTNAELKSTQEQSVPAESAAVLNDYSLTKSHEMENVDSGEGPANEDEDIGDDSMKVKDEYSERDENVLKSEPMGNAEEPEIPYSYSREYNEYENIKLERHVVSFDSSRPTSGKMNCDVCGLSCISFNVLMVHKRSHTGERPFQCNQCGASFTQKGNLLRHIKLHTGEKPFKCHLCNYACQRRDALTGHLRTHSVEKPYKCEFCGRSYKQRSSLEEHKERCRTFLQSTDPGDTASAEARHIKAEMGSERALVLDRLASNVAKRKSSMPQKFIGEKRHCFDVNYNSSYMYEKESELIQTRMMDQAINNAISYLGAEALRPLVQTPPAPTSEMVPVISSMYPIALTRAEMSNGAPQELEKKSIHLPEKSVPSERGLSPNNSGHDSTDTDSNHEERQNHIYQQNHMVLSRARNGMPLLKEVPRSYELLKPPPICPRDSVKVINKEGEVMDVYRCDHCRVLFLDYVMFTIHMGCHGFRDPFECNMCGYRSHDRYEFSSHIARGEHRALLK

Histone deacetylase 1 [4] = target: T1, Histone deacetylase 1; test: Inhibition of HDAC1 (unknown origin) using BocLys(acetyl)-AMC as substrate incubated for 1 hr by fluorescence plate reader analysis
Histone deacetylase 9 = Histone deacetylase 9 (Homo sapiens, UniProt Q9UKV0); test: Inhibition of HDAC9 in human HeLa cells nuclear extract using BocLys(acetyl)-AMC as substrate incubated for 1 hr by fluorescence plate reader analysis; format: subcellular, Nucleus
Chain of Histone deacetylase 9 (Q9UKV0 whole entry): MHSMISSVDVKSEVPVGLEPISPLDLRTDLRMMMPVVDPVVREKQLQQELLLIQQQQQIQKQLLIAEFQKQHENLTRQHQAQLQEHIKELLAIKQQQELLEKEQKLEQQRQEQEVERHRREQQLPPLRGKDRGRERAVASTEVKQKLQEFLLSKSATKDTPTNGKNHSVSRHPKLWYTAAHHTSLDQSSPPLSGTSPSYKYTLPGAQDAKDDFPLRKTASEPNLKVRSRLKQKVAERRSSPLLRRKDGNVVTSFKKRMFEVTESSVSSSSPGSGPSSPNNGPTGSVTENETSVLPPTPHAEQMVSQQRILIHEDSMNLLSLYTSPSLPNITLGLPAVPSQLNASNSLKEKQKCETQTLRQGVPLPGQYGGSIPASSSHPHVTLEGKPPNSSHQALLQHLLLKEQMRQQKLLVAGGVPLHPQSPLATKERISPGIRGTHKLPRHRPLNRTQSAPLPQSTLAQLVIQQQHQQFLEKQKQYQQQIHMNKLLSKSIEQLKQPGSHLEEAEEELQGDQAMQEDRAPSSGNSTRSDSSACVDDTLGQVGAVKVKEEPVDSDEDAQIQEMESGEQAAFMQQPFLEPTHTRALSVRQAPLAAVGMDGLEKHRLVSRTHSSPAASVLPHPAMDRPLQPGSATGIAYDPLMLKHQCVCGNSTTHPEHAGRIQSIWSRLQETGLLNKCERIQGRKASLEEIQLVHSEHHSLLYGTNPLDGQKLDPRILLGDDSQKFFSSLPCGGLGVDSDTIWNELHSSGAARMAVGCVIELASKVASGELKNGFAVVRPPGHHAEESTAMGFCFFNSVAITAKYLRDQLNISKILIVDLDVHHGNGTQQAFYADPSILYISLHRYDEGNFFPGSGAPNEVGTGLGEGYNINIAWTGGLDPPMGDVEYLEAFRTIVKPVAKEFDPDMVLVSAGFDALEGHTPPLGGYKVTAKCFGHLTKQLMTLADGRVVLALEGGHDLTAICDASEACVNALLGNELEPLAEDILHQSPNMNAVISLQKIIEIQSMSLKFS

[5] = target: T2, Protein deacetylase HDAC6 (Homo sapiens, UniProt Q9UBN7); test: Inhibition of HDAC6 (unknown origin) using BocLys(acetyl)-AMC as substrate incubated for 1 hr by fluorescence plate reader analysis
T2 sequence (Q9UBN7 whole entry): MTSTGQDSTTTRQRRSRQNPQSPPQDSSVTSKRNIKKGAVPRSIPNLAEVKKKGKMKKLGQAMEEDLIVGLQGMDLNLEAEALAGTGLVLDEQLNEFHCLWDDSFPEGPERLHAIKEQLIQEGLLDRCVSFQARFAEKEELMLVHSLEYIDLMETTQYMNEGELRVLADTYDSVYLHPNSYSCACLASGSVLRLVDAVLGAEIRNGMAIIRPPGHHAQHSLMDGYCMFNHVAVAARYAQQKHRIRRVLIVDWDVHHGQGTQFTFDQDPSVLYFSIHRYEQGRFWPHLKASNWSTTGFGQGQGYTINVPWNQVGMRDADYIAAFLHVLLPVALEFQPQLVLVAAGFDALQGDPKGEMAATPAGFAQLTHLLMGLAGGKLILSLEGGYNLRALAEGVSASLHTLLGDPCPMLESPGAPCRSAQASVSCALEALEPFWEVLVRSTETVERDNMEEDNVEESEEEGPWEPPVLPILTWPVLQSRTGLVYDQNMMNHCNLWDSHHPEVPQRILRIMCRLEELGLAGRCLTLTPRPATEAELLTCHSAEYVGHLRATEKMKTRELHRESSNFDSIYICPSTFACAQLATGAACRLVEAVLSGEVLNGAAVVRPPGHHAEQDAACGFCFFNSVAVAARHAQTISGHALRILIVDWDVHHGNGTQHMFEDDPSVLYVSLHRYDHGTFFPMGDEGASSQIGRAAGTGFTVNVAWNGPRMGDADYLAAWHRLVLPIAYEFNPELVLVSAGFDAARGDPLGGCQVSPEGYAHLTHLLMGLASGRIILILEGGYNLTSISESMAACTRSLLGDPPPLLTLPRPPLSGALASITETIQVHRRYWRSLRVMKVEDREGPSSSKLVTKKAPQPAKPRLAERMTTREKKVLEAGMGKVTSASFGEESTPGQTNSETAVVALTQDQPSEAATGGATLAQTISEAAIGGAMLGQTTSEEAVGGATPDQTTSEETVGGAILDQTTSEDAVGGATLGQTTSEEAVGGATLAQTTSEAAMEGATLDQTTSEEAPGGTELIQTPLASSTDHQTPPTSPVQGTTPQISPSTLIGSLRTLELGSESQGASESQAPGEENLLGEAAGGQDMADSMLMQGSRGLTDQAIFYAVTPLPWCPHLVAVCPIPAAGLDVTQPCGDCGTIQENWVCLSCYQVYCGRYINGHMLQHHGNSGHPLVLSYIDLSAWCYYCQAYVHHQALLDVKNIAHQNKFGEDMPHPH

Histone deacetylase 11 = target: T3, Histone deacetylase 11 (Homo sapiens, UniProt Q96DB2); test: Inhibition of HDAC11 in human HeLa cells nuclear extract using BocLys(acetyl)-AMC as substrate incubated for 1 hr by fluorescence plate reader analysis; format: subcellular, Nucleus
T3 sequence (Q96DB2 whole entry): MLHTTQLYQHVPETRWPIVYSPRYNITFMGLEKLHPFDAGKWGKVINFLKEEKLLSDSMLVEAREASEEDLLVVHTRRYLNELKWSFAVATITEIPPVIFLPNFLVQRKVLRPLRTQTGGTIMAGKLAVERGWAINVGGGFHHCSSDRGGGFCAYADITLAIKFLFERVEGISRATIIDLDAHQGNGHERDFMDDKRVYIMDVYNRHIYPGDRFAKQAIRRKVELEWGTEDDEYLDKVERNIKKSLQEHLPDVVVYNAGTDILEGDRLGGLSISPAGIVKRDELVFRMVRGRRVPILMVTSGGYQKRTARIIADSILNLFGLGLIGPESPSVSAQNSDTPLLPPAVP

HCT-116 = test: Antiproliferative activity against human HCT-116 cells assessed as cell growth inhibition at 5 uM incubated for 48 hrs by CCK-8 assay; format: functional, cell-based
RS4-11 [6] = test: Antiproliferative activity against human RS4-11 cells assessed as cell growth inhibition at 5 uM incubated for 48 hrs by CCK-8 assay; format: functional, cell-based
K562 [7] = test: Antiproliferative activity against human K562 cells assessed as cell growth inhibition at 5 uM incubated for 48 hrs by CCK-8 assay; format: functional, cell-based
RPMI-8226 = test: Antiproliferative activity against human RPMI-8226 cells assessed as cell growth inhibition at 5 uM incubated for 48 hrs by CCK-8 assay; format: functional, cell-based
U-266 = test: Antiproliferative activity against human U-266 cells assessed as cell growth inhibition incubated for 48 hrs by CCK-8 assay; format: functional, cell-based; settings: U-266, 48 h
K562 [8] = test: Antiproliferative activity against human K562 cells assessed as cell growth inhibition incubated for 48 hrs by CCK-8 assay; format: functional, cell-based; settings: K562, 48 h
[9] = target: T4, Histone deacetylase (Homo sapiens) (UniProt Q13547+O15379+Q9UBN7+Q92769+Q9UQL6+Q8WUI4+Q9BY41+Q96DB2+P56524+Q9UKV0+Q969S8); test: Inhibition of HDAC in human RS4-11 cells assessed as upregulation of histone H3 acetylation at 1 to 10 uM by Western blot assay; format: cell-based; settings: dose 1-10 µM
[10] = target: T4, Histone deacetylase (Homo sapiens); test: Inhibition of HDAC in human RS4-11 cells assessed as upregulation of histone H4 acetylation at 1 to 10 uM by Western blot assay; format: cell-based; settings: dose 1-10 µM
[11] = target: T5, Protein deacetylase HDAC6 (Homo sapiens) (UniProt Q9UBN7); test: Inhibition of HDAC6 in human RS4-11 cells assessed as upregulation of alpha-tubulin acetylation at 1 to 10 uM by Western blot assay; format: cell-based; settings: dose 1-10 µM
T5 sequence (whole entry): T2 sequence (Q9UBN7 whole entry)

RS4-11 [12] = test: Induction of apoptosis in human RS4-11 cells assessed as cleaved caspase-9 release at 1 to 10 uM; format: functional, cell-based; settings: dose 1-10 µM
RS4-11 [13] = test: Induction of apoptosis in human RS4-11 cells assessed as cleavage of caspase-3 at 1 to 10 uM; format: functional, cell-based; settings: dose 1-10 µM
RS4-11 [14] = test: Induction of cell cycle arrest in human RS4-11 cells assessed as S phase arrest after 48 hrs by PI staining based flow cytometry analysis; format: functional; settings: dose 1-10 µM

Row | Activity (Histone deacetylase 1 [1]) | Activity [2] | Activity [3] | IC50 (Histone deacetylase 1 [4]) | IC50 (Histone deacetylase 9) | IC50 [5] | IC50 (Histone deacetylase 11) | IC50 (K562 [8]) | Activity [9] | Activity [10] | Activity [11] | Compound | Activity (HCT-116) | Activity (RS4-11 [6]) | Activity (K562 [7]) | Activity (RPMI-8226) | IC50 (U-266) | Activity (RS4-11 [12]) | Activity (RS4-11 [13]) | Activity (RS4-11 [14])
1 | inactive | Active | Active | 551 nM | > 2000 nM | > 2000 nM | > 2000 nM | 5540 nM | Active | Active | inactive | Nc1ccccc1NC(=O)c1ccc(CNc2cccc3c2C(=O)N(C2CCC(=O)NC2=O)C3=O)cc1 (stereo not drawn) | inactive | Active | Active | Active | 4890 nM | Active | Active | Dose-Dependent Effect
2 | inactive | Active | Active | 457 nM | > 2000 nM | > 2000 nM | > 2000 nM | 5350 nM | Active | Active | inactive | Nc1cc(F)ccc1NC(=O)c1ccc(CNc2cccc3c2C(=O)N(C2CCC(=O)NC2=O)C3=O)cc1 (stereo not drawn) | inactive | Active | Active | Active | 2940 nM | Active | Active | Dose-Dependent Effect
